Assay results published in ChEMBL document CHEMBL5365394, “Design, synthesis and biological evaluation of novel spiro-quinazolinone derivatives as chitin synthase inhibitors and antifungal agents” (Eur J Med Chem, 2023).
Values after ≈ are worked out from the molar mass of the structure shown.

Legend:
Candida tropicalis = experiment: Inhibition of Candida tropicalis ATCC 750 chitin synthase using […] as substrate at 300 ug/ml incubated for 1 hr by absorbance based assay relative to control; details: dose 300.0 µg/ml
[1] = Inhibition of Candida tropicalis ATCC 750 chitin synthase using UDP-GlcNAc as substrate incubated for 1 hr by absorbance based assay
Candida albicans [2] = experiment: Antifungal activity against Candida albicans ATCC 76615 assessed as fungal growth inhibition incubated for 24 hrs by two-fold serial dilution method; type: functional
Aspergillus flavus [3] = experiment: Antifungal activity against Aspergillus flavus ATCC 16870 assessed as fungal growth inhibition incubated for 24 hrs by two-fold serial dilution method; type: functional
Aspergillus fumigatus [4] = experiment: Antifungal activity against Aspergillus fumigatus GIMCC 3.19 assessed as fungal growth inhibition incubated for 24 hrs by two-fold serial dilution method; type: functional
Cryptococcus neoformans [5] = experiment: Antifungal activity against Cryptococcus neoformans ATCC 32719 assessed as fungal growth inhibition incubated for 24 hrs by two-fold serial dilution method; type: functional
Aspergillus flavus [6] = experiment: Antifungal activity against Aspergillus flavus ATCC 16870 assessed as inhibition of cell wall synthesis incubated for 24 hrs in presence of sorbitol; type: functional
Candida albicans [7] = experiment: Antifungal activity against Candida albicans ATCC 76615 assessed as inhibition of cell wall synthesis incubated for 24 hrs in presence of sorbitol; type: functional
Aspergillus fumigatus [8] = experiment: Antifungal activity against Aspergillus fumigatus GIMCC 3.19 assessed as inhibition of cell wall synthesis incubated for 24 hrs in presence of sorbitol; type: functional
Cryptococcus neoformans [9] = experiment: Antifungal activity against Cryptococcus neoformans ATCC 32719 assessed as inhibition of cell wall synthesis incubated for 24 hrs in presence of sorbitol; type: functional
Candida albicans [10] = experiment: Antifungal activity against Fluconazole-resistant Candida albicans ATCC 76615R assessed as fungal growth inhibition; type: functional
Aspergillus flavus [11] = experiment: Antifungal activity against Fluconazole-resistant Aspergillus flavus ATCC 16870R assessed as fungal growth inhibition; type: functional
Aspergillus fumigatus [12] = experiment: Antifungal activity against Fluconazole-resistant Aspergillus fumigatus GIMCC 3.19R assessed as fungal growth inhibition; type: functional
Cryptococcus neoformans [13] = experiment: Antifungal activity against Fluconazole-resistant Cryptococcus neoformans ATCC 32719R assessed as fungal growth inhibition; type: functional
Candida albicans [14] = experiment: Antifungal activity against Micafungin-resistant Candida albicans ATCC 76615R assessed as fungal growth inhibition; type: functional
Candida albicans [15] = experiment: Synergistic antifungal activity against Candida albicans ATCC 76615 assessed as fluconazole MIC incubated for 24 hrs in by checkerboard broth microdilution method; type: functional
Aspergillus fumigatus [16] = experiment: Synergistic antifungal activity against Aspergillus fumigatus GIMCC 3.19 assessed as polyoxin B MIC incubated for 24 hrs by checkerboard broth microdilution method; type: functional
Aspergillus flavus [17] = experiment: Synergistic antifungal activity against Aspergillus flavus ATCC 16870 assessed as fluconazole MIC incubated for 24 hrs in by checkerboard broth microdilution method; type: functional
Aspergillus fumigatus [18] = experiment: Synergistic antifungal activity against Aspergillus fumigatus GIMCC 3.19 assessed as fluconazole MIC incubated for 24 hrs in by checkerboard broth microdilution method; type: functional
Cryptococcus neoformans [19] = experiment: Synergistic antifungal activity against Cryptococcus neoformans ATCC 32719 assessed as fluconazole MIC incubated for 24 hrs in by checkerboard broth microdilution method; type: functional
Candida albicans [20] = experiment: Synergistic antifungal activity against Candida albicans ATCC 76615 assessed as polyoxin B MIC incubated for 24 hrs by checkerboard broth microdilution method; type: functional
Aspergillus flavus [21] = experiment: Synergistic antifungal activity against Aspergillus flavus ATCC 16870 assessed as polyoxin B MIC incubated for 24 hrs by checkerboard broth microdilution method; type: functional
Cryptococcus neoformans [22] = experiment: Synergistic antifungal activity against Cryptococcus neoformans ATCC 32719 assessed as polyoxin B MIC incubated for 24 hrs in by checkerboard broth microdilution method; type: functional
Candida albicans [23] = experiment: Additive antifungal activity against Candida albicans ATCC 76615 assessed as fractional inhibitory concentration index incubated for 24 hrs in presence of fluconazole by checkerboard broth microdilution method; type: functional
Aspergillus flavus [24] = experiment: Additive antifungal activity against Aspergillus flavus ATCC 16870 assessed as fractional inhibitory concentration index incubated for 24 hrs in presence of fluconazole by checkerboard broth microdilution method; type: functional
Cryptococcus neoformans [25] = experiment: Additive antifungal activity against Cryptococcus neoformans ATCC 32719 assessed as fractional inhibitory concentration index incubated for 24 hrs in presence of fluconazole by checkerboard broth microdilution method; type: functional
Aspergillus fumigatus [26] = experiment: Synergistic antifungal activity against Aspergillus fumigatus GIMCC 3.19 assessed as fractional inhibitory concentration index incubated for 24 hrs in presence of fluconazole by checkerboard broth microdilution method; type: functional
Aspergillus flavus [27] = experiment: Additive antifungal activity against Aspergillus flavus ATCC 16870 assessed as fractional inhibitory concentration index incubated for 24 hrs in presence of polyoxin B by checkerboard broth microdilution method; type: functional
Cryptococcus neoformans [28] = experiment: Additive antifungal activity against Cryptococcus neoformans ATCC 32719 assessed as fractional inhibitory concentration index incubated for 24 hrs in presence of polyoxin B by checkerboard broth microdilution method; type: functional
Candida albicans [29] = experiment: Antifungal activity against Candida albicans ATCC 76615 assessed as inhibition of cell wall synthesis incubated for 24 hrs in absence of sorbitol; type: functional
Aspergillus flavus [30] = experiment: Antifungal activity against Aspergillus flavus ATCC 16870 assessed as inhibition of cell wall synthesis incubated for 24 hrs in absence of sorbitol; type: functional
Aspergillus fumigatus [31] = experiment: Antifungal activity against Aspergillus fumigatus GIMCC 3.19 assessed as inhibition of cell wall synthesis incubated for 24 hrs in absence of sorbitol; type: functional
Cryptococcus neoformans [32] = experiment: Antifungal activity against Cryptococcus neoformans ATCC 32719 assessed as inhibition of cell wall synthesis incubated for 24 hrs in absence of sorbitol; type: functional
Candida albicans [33] = experiment: Additive antifungal activity against Candida albicans ATCC 76615 assessed as fractional inhibitory concentration index incubated for 24 hrs in presence of polyoxin B by checkerboard broth microdilution method; type: functional
Aspergillus fumigatus [34] = experiment: Additive antifungal activity against Aspergillus fumigatus GIMCC 3.19 assessed as fractional inhibitory concentration index incubated for 24 hrs in presence of polyoxin B by checkerboard broth microdilution method; type: functional
[35] = Cytotoxicity against human A549 cells assessed as cell viability at 4 ug/ml incubated for 24 hrs by CCK-8 assay relative to control; type: toxicity, cell-based; details: at 4 µg/mL, read-out: Activity
[36] = Cytotoxicity against human A549 cells assessed as cell viability at 8 ug/ml incubated for 24 hrs by CCK-8 assay relative to control; type: toxicity, cell-based; details: at 8 µg/mL, read-out: Activity
[37] = Cytotoxicity against human A549 cells assessed as cell viability at 16 ug/ml incubated for 24 hrs by CCK-8 assay relative to control; type: toxicity, cell-based; details: at 16 µg/mL, read-out: Activity
[38] = Cytotoxicity against human A549 cells assessed as cell viability at 32 ug/ml incubated for 24 hrs by CCK-8 assay relative to control; type: toxicity, cell-based; details: at 32 µg/mL, read-out: Activity
[39] = Cytotoxicity against human A549 cells assessed as cell viability at 64 ug/ml incubated for 24 hrs by CCK-8 assay relative to control; type: toxicity, cell-based; details: at 64 µg/mL, read-out: Activity
A549 = experiment: Cytotoxicity against human A549 cells assessed as cell viability incubated for 24 hrs at 128 ug/ml by CCK-8 assay relative to control; details: dose 128 µg/ml

O=C(/C=C/C(=O)Nc1ccc(Cl)cc1Cl)Nc1ccc2c(c1)C(=O)NC1(CCSC1)N2 (stereo not given)
inhibition (Candida tropicalis): 73.9% | IC50 [1]: 137 µM | MIC (Candida albicans [2]): 8 µg/mL (≈ 16.8 µM) | MIC (Aspergillus flavus [3]): 8 µg/mL (≈ 16.8 µM) | MIC (Aspergillus fumigatus [4]): 8 µg/mL (≈ 16.8 µM) | MIC (Cryptococcus neoformans [5]): 8 µg/mL (≈ 16.8 µM) | MIC (Aspergillus flavus [6]): 256 µg/mL | MIC (Candida albicans [7]): 256 µg/mL | MIC (Aspergillus fumigatus [8]): 128 µg/mL | MIC (Cryptococcus neoformans [9]): 128 µg/mL | MIC (Candida albicans [10]): 32 µg/mL (≈ 67 µM) | MIC (Aspergillus flavus [11]): 32 µg/mL (≈ 67 µM) | MIC (Aspergillus fumigatus [12]): 16 µg/mL (≈ 33.5 µM) | MIC (Cryptococcus neoformans [13]): 32 µg/mL (≈ 67 µM) | MIC (Candida albicans [14]): 16 µg/mL (≈ 33.5 µM) | MIC (Candida albicans [15]): 2 µg/mL | MIC (Aspergillus fumigatus [16]): 8 µg/mL | MIC (Aspergillus flavus [17]): 4 µg/mL | MIC (Aspergillus fumigatus [18]): 2 µg/mL | MIC (Cryptococcus neoformans [19]): 2 µg/mL | MIC (Candida albicans [20]): 2 µg/mL | MIC (Aspergillus flavus [21]): 16 µg/mL | MIC (Cryptococcus neoformans [22]): 16 µg/mL | fractional inhibitory concentration index (FICI) (Candida albicans [23]): 1.5 | fractional inhibitory concentration index (FICI) (Aspergillus flavus [24]): 1.25 | fractional inhibitory concentration index (FICI) (Cryptococcus neoformans [25]): 1.5 | fractional inhibitory concentration index (FICI) (Aspergillus fumigatus [26]): 0.75 | fractional inhibitory concentration index (FICI) (Aspergillus flavus [27]): 2 | fractional inhibitory concentration index (FICI) (Cryptococcus neoformans [28]): 1.5 | MIC (Candida albicans [29]): 16 µg/mL (≈ 33.5 µM) | MIC (Aspergillus flavus [30]): 32 µg/mL (≈ 67 µM) | MIC (Aspergillus fumigatus [31]): 16 µg/mL (≈ 33.5 µM) | MIC (Cryptococcus neoformans [32]): 16 µg/mL (≈ 33.5 µM) | fractional inhibitory concentration index (FICI) (Candida albicans [33]): 1.25 | fractional inhibitory concentration index (FICI) (Aspergillus fumigatus [34]): 1.5

NC(=O)OC[C@H](O)[C@@H](O)[C@H](N)C(=O)N[C@H](C(=O)O)[C@H]1O[C@@H](n2cc(CO)c(=O)[nH]c2=O)[C@H](O)[C@@H]1O [POLYOXIN B]
viability at 24 h, 4 ug/ml [35]: 99.3% | viability at 24 h, 8 ug/ml [36]: 98.7% | viability at 24 h, 16 ug/ml [37]: 97.9% | viability at 24 h, 32 ug/ml [38]: 92.7% | viability at 24 h, 64 ug/ml [39]: 91.2% | inhibition (Candida tropicalis): 84.7% | IC50 [1]: 93.5 µM | MIC (Candida albicans [2]): 8 µg/mL (≈ 15.8 µM) | MIC (Aspergillus flavus [3]): 16 µg/mL (≈ 31.5 µM) | MIC (Aspergillus fumigatus [4]): 16 µg/mL (≈ 31.5 µM) | MIC (Cryptococcus neoformans [5]): 16 µg/mL (≈ 31.5 µM) | MIC (Aspergillus flavus [6]): 128 µg/mL | MIC (Candida albicans [7]): 128 µg/mL | MIC (Aspergillus fumigatus [8]): 128 µg/mL | MIC (Cryptococcus neoformans [9]): 64 µg/mL | MIC (Candida albicans [29]): 8 µg/mL (≈ 15.8 µM) | MIC (Aspergillus flavus [30]): 16 µg/mL (≈ 31.5 µM) | MIC (Aspergillus fumigatus [31]): 16 µg/mL (≈ 31.5 µM) | MIC (Cryptococcus neoformans [32]): 16 µg/mL (≈ 31.5 µM) | viability (A549): 84.3%
